The text below walks through data of patent US5246989A, “Photochromic compound, composition and use thereof” (priority 1990, dated 1993).

The series is described as follows: Photochromic characteristics of cast polymethyl methacrylate film (coloration under mercury lamp, fading). Type of series: physicochemical. The note with it: PMMA film, 1.0×10^-4 mol/g, 0.1 mm, 35° C.; for t1/2 (half-value period of absorbance after irradiation): after 60 seconds' irradiation; for λ max (maximum absorption wavelength of the colored film) / ε (60 seconds)-ε (0 second): mercury lamp 60 seconds; for ε (60 seconds)-ε (0 second): absorbance at λmax.

Method: The compound synthesized in Example 1, which was represented by the following formula: [drawing 286] was dissolved and dispersed in polymethyl methacrylate with the aid of benzene, and a cast film was prepared on a slide glass sheet (11.2 cm×3.7 cm) so that the concentration of the compound in the film was 1.0×10^-4 mol/g and the thickness of the film was 0.1 mm. The photochromic film was irradiated with rays of a mercury lamp (SHL-100 supplied by Toshiba) located 10 cm apart from the film at 35° C.+1° C. for 60 seconds to effect coloration in the film, and the photochromic characteristics were examined with respect to items described below.
Maximum absorption wavelength (λmax):
The maximum absorption wavelength λmax of the colored film was determined by using a spectrophotometer (220 A supplied by Hitachi).
After 60 seconds' irradiation under the above-mentioned conditions, the absorbance at the maximum absorption wavelength was measured.
The absorbance at the maximum absorption wavelength of the unirradiated film was measured. Half-value period t^1/2 :
After 60 seconds' irradiation, the time required for reduction of the absorbance of the film to 1/2 of [ε(60 seconds)-ε(0 second)] was measured.

As for `CN1c2ccccc2C2(CC3CCC2C3)C12C=Nc1ccc3cccnc3c1O2` (centres unmarked) [Compound 2], the t1/2 (half-value period of absorbance after irradiation) came to 18 s, the “λ max (maximum absorption wavelength of the colored film)” value (from here on “λ max”) amounted to 603 and the “ε (60 seconds)-ε (0 second)” value is 1.4.
Regarding `CN(C)c1cc2c(c3ccccc13)OC1(C=N2)N(C)c2ccccc2C12CC1CCC2C1` (centres unmarked) [Compound 3], the t1/2 (half-value period of absorbance after irradiation) came out at 18 s, the “λ max” value is listed as 603 and the “ε (60 seconds)-ε (0 second)” value was 1.3.
Consider `CCCN1c2ccc(C(F)(F)F)cc2C2(C3CC4CC(C3)CC2C4)C12C=Nc1ccc3ccccc3c1O2` (centres unmarked) [Compound 4], for which the t1/2 (half-value period of absorbance after irradiation) came to 18 s, the “λ max” value is recorded as 605 and the “ε (60 seconds)-ε (0 second)” value is given as 1.4.
For `CCC1(CC)c2cc(O)cnc2N(C)C12C=Nc1ccc3ncccc3c1O2` (centres unmarked) [Compound 5], in that order: 16 s, 598 and 1.7.
As for `N#Cc1cnc2ccc3c(c2c1)OC1(C=N3)N(CCc2ccccc2)c2ccccc2C12CCCCC2` (centres unmarked) [Compound 7], the t1/2 (half-value period of absorbance after irradiation) is 18 s, the “λ max” value is recorded as 601 and the “ε (60 seconds)-ε (0 second)” value was determined as 1.8.
The corresponding values for `CN1c2cc3occc3cc2C2(CC3CCC2C3)C12C=Nc1ccc3ccccc3c1O2` (centres unmarked) [Compound 8] are 18 s, 603 and 1.4.
On to `CN1c2ccc(Cl)cc2C2(C3CC4CC(C3)CC2C4)C12C=Nc1cc(N3CCCCC3)c3ncccc3c1O2` (centres unmarked) [Compound 9], for which the t1/2 (half-value period of absorbance after irradiation) worked out at 17 s, the “λ max” value is 605 and the “ε (60 seconds)-ε (0 second)” value came out at 1.2.
The corresponding values for `COC(=O)CN1c2ccc(N(C)C)cc2C2(CCCCC2)C12C=Nc1cc(Br)c3ccccc3c1O2` (centres unmarked) [Compound 11] are 17 s, 607 and 1.3.
With `COC(=O)CCCCN1c2cc3[nH]ccc3cc2C2(CC3CCC2C3)C12C=Nc1cc(-c3ccccc3)c3ncccc3c1O2` (centres unmarked) [Compound 13], the t1/2 (half-value period of absorbance after irradiation) was determined as 18 s, the “λ max” value worked out at 607 and the “ε (60 seconds)-ε (0 second)” value is recorded as 1.4.
On to `COC(=O)CN1c2cc3ccc([N+](=O)[O-])cc3cc2C2(CC3CCC2C3)C12C=Nc1c(C(F)(F)F)cc3ncccc3c1O2` (centres unmarked) [Compound 14], for which the t1/2 (half-value period of absorbance after irradiation) came to 16 s, the “λ max” value stood at 606 and the “ε (60 seconds)-ε (0 second)” value was 1.4.
The corresponding values for `CN1c2cc3ncc(-c4ccsc4)cc3cc2C2(C3CC4CC(C3)CC2C4)C12C=Nc1ccc3ccccc3c1O2` (centres unmarked) [Compound 15] are 16 s, 607 and 1.3.
For `COc1cc2c(c3ccccc13)OC1(C=N2)N(c2ccccc2)c2ccccc2C12CCCC2` (centres unmarked) [Compound 16], in that order: 17 s, 606 and 1.2.
Take `N#CCN1c2[nH]ccc2C2(CCCCCC2)C12C=Nc1cc(C#N)c3ccccc3c1O2` (centres unmarked) [Compound 17]: the t1/2 (half-value period of absorbance after irradiation) is 18 s, the “λ max” value is 606 and the “ε (60 seconds)-ε (0 second)” value stood at 1.4.
With `COc1ccc2c(c1)C1(CCCCC1)C1(C=Nc3ccc4cc5[nH]ccc5cc4c3O1)N2C` (centres unmarked) [Compound 19], the t1/2 (half-value period of absorbance after irradiation) was 17 s, the “λ max” value is 607 and the “ε (60 seconds)-ε (0 second)” value is 1.2.
For `COC(=O)c1cc2c(c3cc[nH]c13)OC1(C=N2)N(C)c2[nH]ccc2C12CCCCC2` (centres unmarked) [Compound 20], in that order: 17 s, 603 and 1.4.
For the molecule `CN1c2ccc([N+](=O)[O-])cc2C2(CCCCC2)C12C=Nc1ccc3ccccc3c1O2` (centres unmarked) [Compound 21], the t1/2 (half-value period of absorbance after irradiation) stood at 18 s, the “λ max” value stood at 610 and the “ε (60 seconds)-ε (0 second)” value was determined as 1.2.
The corresponding values for `CCCCN1c2cc(CC)ccc2C2(CC3CCC2C3)C12C=Nc1c(N)cc3occc3c1O2` (centres unmarked) [Compound 23] are 19 s, 605 and 1.2.
The corresponding values for `COC(=O)CN1c2cc(Cl)ccc2C2(C3CC4CC(C3)CC2C4)C12C=Nc1ccc3cc4ccc(Br)cc4cc3c1O2` (centres unmarked) [Compound 24] are 18 s, 609 and 1.2.
As for `CN1c2ccccc2C2(CCCCC2)C12C=Nc1cc(Cc3ccccc3)c3ccccc3c1O2` (centres unmarked) [Compound 25], the t1/2 (half-value period of absorbance after irradiation) was determined as 18 s, the “λ max” value worked out at 611 and the “ε (60 seconds)-ε (0 second)” value is 1.4.
As to `CN1c2ccccc2C2(CCCCC2)C12C=Nc1ccc3cnccc3c1O2` (centres unmarked) [Compound 26], the t1/2 (half-value period of absorbance after irradiation) is 17 s, the “λ max” value worked out at 619 and the “ε (60 seconds)-ε (0 second)” value was 1.8.
For `CN1c2c(F)cc(F)cc2C2(CCCCC2)C12C=Nc1ccc3cnccc3c1O2` (centres unmarked) [Compound 27], in that order: 15 s, 613 and 1.7.
For `Cc1cc2ccncc2c2c1N=CC1(O2)N(C(C)C)c2ccc(Cl)cc2C12CCCC2` (centres unmarked) [Compound 28], in that order: 14 s, 595 and 1.7.
The corresponding values for `Cc1cc2c(c3ccnc(C)c13)OC1(C=N2)N(C(C)C)c2cc(Br)ccc2C12CCCCCC2` (centres unmarked) [Compound 29] are 16 s, 602 and 1.6.
Regarding `CCC1(CC)c2cc(C(F)(F)F)ccc2N(Cc2ccccc2)C12C=Nc1cc(Cc3ccccc3)c3c(C)cncc3c1O2` (centres unmarked) [Compound 30], the t1/2 (half-value period of absorbance after irradiation) amounted to 18 s, the “λ max” value is 589 and the “ε (60 seconds)-ε (0 second)” value was 1.6.
For `CCC1(C)c2cc(OC)ccc2N(Cc2ccccc2)C12C=Nc1cc(-c3ccccc3)c3c(OC)nccc3c1O2` (centres unmarked) [Compound 31], the t1/2 (half-value period of absorbance after irradiation) came to 17 s, the “λ max” value is 619 and the “ε (60 seconds)-ε (0 second)” value is listed as 1.7.
With `CCC1(CC)c2ccc(N(C)C)cc2N(CCc2ccccc2)C12C=Nc1c(Cl)cc3cc(OC)ncc3c1O2` (centres unmarked) [Compound 32], the t1/2 (half-value period of absorbance after irradiation) is 19 s, the “λ max” value came out at 590 and the “ε (60 seconds)-ε (0 second)” value turned out to be 1.7.
For `CN(C)c1cc2c(c3cc4cc[nH]c4cc13)OC1(C=N2)N(C)c2ncc(Cc3ccccc3)cc2C1(C)C` (centres unmarked) [Compound 47], in that order: 17 s, 601 and 1.4.
The corresponding values for `CN1c2occ(C#N)c2C(C)(C)C12C=Nc1cc(Cc3ccccc3)c3ncc(Br)cc3c1O2` (centres unmarked) [Compound 48] are 18 s, 610 and 1.4.
For `CN1c2cc(N3CCCC3)ccc2C(C)(C)C12C=Nc1c(C(F)(F)F)cc3ncccc3c1O2` (centres unmarked) [Compound 49], in that order: 19 s, 600 and 1.5.
On to `CC1(C)c2cc3cc(-c4ccsc4)oc3cc2N(CCC#N)C12C=Nc1c(N)cc3ncccc3c1O2` (centres unmarked) [Compound 50], for which the “λ max” value was 605 and the “ε (60 seconds)-ε (0 second)” value is recorded as 1.5.
For the molecule `COC(=O)c1cc2ncccc2c2c1N=CC1(O2)N(C)c2c(cc(C(F)(F)F)c(C(F)(F)F)c2C(F)(F)F)C1(C)C` (centres unmarked) [Compound 51], the t1/2 (half-value period of absorbance after irradiation) stood at 18 s, the “λ max” value turned out to be 609 and the “ε (60 seconds)-ε (0 second)” value turned out to be 1.4.
The corresponding values for `COC(=O)c1ccc2c(c1)C(C)(C)C1(C=Nc3ccc4ncccc4c3O1)N2C` (centres unmarked) [Compound 52] are 18 s, 611 and 1.5.
Take `CN1c2ccccc2C(C)(C)C12C=Nc1ccc3cnccc3c1O2` (centres unmarked) [Compound 53]: the t1/2 (half-value period of absorbance after irradiation) was 16 s, the “λ max” value came to 615 and the “ε (60 seconds)-ε (0 second)” value was determined as 1.7.
For `CN1c2c(F)cc(F)cc2C(C)(C)C12C=Nc1ccc3cnccc3c1O2` (centres unmarked) [Compound 54], in that order: 14 s, 609 and 1.5.
Consider `Cc1cc2ccncc2c2c1N=CC1(O2)N(C(C)C)c2ccc(Cl)cc2C1(C)C` (centres unmarked) [Compound 55], for which the t1/2 (half-value period of absorbance after irradiation) was determined as 13 s, the “λ max” value was 590 and the “ε (60 seconds)-ε (0 second)” value was 1.6.
